Test [1] deals with L5178Y. The experiment in a line: Tested in vivo for antileukemic activity in the asparagine dependent L5178Y lymphatic leukemia cells in mice up to intraperitoneal doses 40 mg/kg; NA = no antitumor activity. The class given is functional, organism-based. Set-up: dose 40 mg/kg. The settings on record: Mus musculus.
For test [2], the system named is L5178Y. Description: Tested in vivo for antileukemic activity in the asparagine dependent L5178Y lymphatic leukemia cells in mice up to intraperitoneal doses 100 mg/kg; NA = no antitumor activity. The class given is functional, organism-based. On the set-up: dose 100 mg/kg. The following applies: Mus musculus.

Calls of active or inactive are those of the source. The calls are words filed in the database; no cut-off is given here.

`NC(C(=O)O)C(F)C(=O)O` (configuration not stated): the outcome in the test on L5178Y [1] was inactive.
As to `NC(=O)C(F)C(N)C(=O)O` (configuration not stated), the result with L5178Y [2] was inactive.

The record behind these values is ChEMBL document CHEMBL1121530, “Potential carcinostatics. 4. Synthesis and biological properties of erythro- and threo-beta-fluoroaspartic acid and erythro-beta-fluoroasparagine” (J Med Chem, 1980).
